Assay results from patent US10294234B2, “HIV inhibitor compounds” (priority 2017, dated 2019).

system: HIV-1 (IIIB) in MT-4 cells; experiment: MT-4 HIV assay; type: cell-based; settings: Human immunodeficiency virus 1, MT4, 120 h
In short: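 Antiviral activity was read by Cell Titer Glo after a 5-day, 37 °C culture of MT-4 cells pre-infected with a 1:250 dilution of HIV-1 (IIIB). Compounds were tested as threefold dilution series in complete RPMI. Controls were no drug, mock infection and 5 uM AZT.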

Q: How did the EC50 turn out when COC(=O)N[C@H](C(=O)N[C@@H](Cc1ccc(C#Cc2ccc(N3CCN(C4(C)COC4)CC3)nc2)cc1)[C@@H](O)CN(Cc1c(F)cc(-c2ccn(C(F)F)n2)cc1F)NC(=O)[C@@H](NC(=O)OC)C(C)(C)C(F)(F)F)C(C)(C)C(F)(F)F [Example 141, methyl ((5S,8S,9S,14S)-11-(4-(1-(difluoromethyl)-1H-pyrazol-3-yl)-2,6-difluorobenzyl)-16,16,16-trifluoro-9-hydroxy-15,15-dimethyl-8-(4-((6-(4-(3-methyloxetan-3-yl)piperazin-1-yl)pyridin-3-yl)ethynyl)benzyl)-3,6,13-trioxo-5-(1,1,1-trifluoro-2-methylpropan-2-yl)-2-oxa-4,7,11,12-tetraazahexadecan-14-yl)carbamate] was run?
A: The EC50 was 6.68 nM.

same assay, conditions: Human immunodeficiency virus 1, MT4, 120 h; HIV-1 (IIIB), MT-4 cells, 5 days, Cell Titer Glo; read-out: EC50

Q: Which EC50 does the source give for COC(=O)N[C@H](C(=O)N[C@@H](Cc1ccc(C#Cc2ccc(N3CC4CCC(C3)N4[C@H]3CCOC3)nc2)cc1)[C@@H](O)CN(Cc1c(F)cc(-c2ccn(C(F)F)n2)cc1F)NC(=O)[C@@H](NC(=O)OC)C(C)(C)C(F)(F)F)C(C)(C)C(F)(F)F [Example 142, Methyl ((5S,8S,9S,14S)-11-(4-(1-(difluoromethyl)-1H-pyrazol-3-yl)-2,6-difluorobenzyl)-16,16,16-trifluoro-9-hydroxy-15,15-dimethyl-3,6,13-trioxo-8-(4-((6-(8-((S)-tetrahydrofuran-3-yl)-3,8-diazabicyclo[3.2.1]octan-3-yl)pyridin-3-yl)ethynyl)benzyl)-5-(1,1,1-trifluoro-2-methylpropan-2-yl)-2-oxa-4,7,11,12-tetraazahexadecan-14-yl)carbamate] here?
A: The EC50 was 8.78 nM.

Q: For COC(=O)N[C@H](C(=O)N[C@@H](Cc1ccc(C#Cc2ccc(N3CC4CCC(C3)N4[C@@H]3CCOC3)nc2)cc1)[C@@H](O)CN(Cc1c(F)cc(-c2ccn(C(F)F)n2)cc1F)NC(=O)[C@@H](NC(=O)OC)C(C)(C)C(F)(F)F)C(C)(C)C(F)(F)F [Example 143, Methyl ((5S,8S,9S,14S)-11-(4-(1-(difluoromethyl)-1H-pyrazol-3-yl)-2,6-difluorobenzyl)-16,16,16-trifluoro-9-hydroxy-15,15-dimethyl-3,6,13-trioxo-8-(4-((6-(8-((R)-tetrahydrofuran-3-yl)-3,8-diazabicyclo[3.2.1]octan-3-yl)pyridin-3-yl)ethynyl)benzyl)-5-(1,1,1-trifluoro-2-methylpropan-2-yl)-2-oxa-4,7,11,12-tetraazahexadecan-14-yl)carbamate], which EC50 is on record?
A: The EC50 was 7.79 nM.

Q: For COC(=O)N[C@H](C(=O)N[C@@H](Cc1ccc(C#Cc2ccc(N3CC4CCC(C3)N4C3COC3)nc2)cc1)[C@@H](O)CN(Cc1ccc(-c2ccccn2)cc1Cl)NC(=O)[C@@H](NC(=O)OC)C(C)(C)C(F)(F)F)C(C)(C)C(F)(F)F [Example 148, Methyl ((5S,8S,9S,14S)-11l-(2-chloro-4-(pyridin-2-yl)benzyl)-16,16,16-trifluoro-9-hydroxy-15,15-dimethyl-8-(4-((6-(8-(oxetan-3-yl)-3,8-diazabicyclo[3.2.1]octan-3-yl)pyridin-3-yl)ethynyl)benzyl)-3,6,13-trioxo-5-(1,1,1-trifluoro-2-methylpropan-2-yl)-2-oxa-4,7,11,12-tetraazahexadecan-14-yl)carbamate], which EC50 is on record?
A: The EC50 was 6.95 nM.

Q: How did the EC50 turn out when COC(=O)N[C@H](C(=O)N[C@@H](Cc1ccc(C#Cc2ccc(N3CC4CCC(C3)N4C3COC3)nc2)cc1)[C@@H](O)CN(Cc1c(Cl)cc(-c2ccccn2)cc1Cl)NC(=O)[C@@H](NC(=O)OC)C(C)(C)C(F)(F)F)C(C)(C)C(F)(F)F [Example 149, Methyl ((5S,8S,9S,14S)-11-(2,6-dichloro-4-(pyridin-2-yl)benzyl)-16,16,16-trifluoro-9-hydroxy-15,15-dimethyl-8-(4-((6-(8-(oxetan-3-yl)-3,8-diazabicyclo[3.2.1]octan-3-yl)pyridin-3-yl)ethynyl)benzyl)-3,6,13-trioxo-5-(1,1,1-trifluoro-2-methylpropan-2-yl)-2-oxa-4,7,11,12-tetraazahexadecan-14-yl)carbamate] was run?
A: The EC50 was 8.3 nM.

Q: Which EC50 does the source give for COC(=O)N[C@H](C(=O)N[C@@H](Cc1ccc(C#Cc2cnc(N3CC4CCC(C3)N4C3COC3)c(C)c2)cc1)[C@@H](O)CN(Cc1c(F)cc(-c2ccn(C(F)F)n2)cc1F)NC(=O)[C@@H](NC(=O)OC)C(C)(C)C(F)(F)F)C(C)(C)C(F)(F)F [Example 150, Methyl ((5S,8S,9S,14S)-11-(4-(1-(difluoromethyl)-1H-pyrazol-3-yl)-2,6-difluorobenzyl)-16,16,16-trifluoro-9-hydroxy-15,15-dimethyl-8-(4-((5-methyl-6-(8-(oxetan-3-yl)-3,8-diazabicyclo[3.2.1]octan-3-yl)pyridin-3-yl)ethynyl)benzyl)-3,6,13-trioxo-5-(1,1,1-trifluoro-2-methylpropan-2-yl)-2-oxa-4,7,11,12-tetraazahexadecan-14-yl)carbamate] here?
A: The EC50 was 5.86 nM.

Q: With COC(=O)N[C@H](C(=O)N[C@@H](Cc1ccc(C#Cc2cnc(N3CC4CCC(C3)N4C3COC3)cc2C)cc1)[C@@H](O)CN(Cc1c(F)cc(-c2ccn(C(F)F)n2)cc1F)NC(=O)[C@@H](NC(=O)OC)C(C)(C)C(F)(F)F)C(C)(C)C(F)(F)F [Example 151, Methyl ((5S,8S,9S,14S)-11-(4-(1-(difluoromethyl)-1H-pyrazol-3-yl)-2,6-difluorobenzyl)-16,16,16-trifluoro-9-hydroxy-15,15-dimethyl-8-(4-((4-methyl-6-(8-(oxetan-3-yl)-3,8-diazabicyclo[3.2.1]octan-3-yl)pyridin-3-yl)ethynyl)benzyl)-3,6,13-trioxo-5-(1,1,1-trifluoro-2-methylpropan-2-yl)-2-oxa-4,7,11,12-tetraazahexadecan-14-yl)carbamate] as the molecule, how does the EC50 read?
A: The EC50 was 4.82 nM.

Q: How did the EC50 turn out when COC(=O)N[C@H](C(=O)N[C@@H](Cc1ccc(C#Cc2ccc(N3CC4CCC(C3)N4C3COC3)nc2C)cc1)[C@@H](O)CN(Cc1c(F)cc(-c2ccn(C(F)F)n2)cc1F)NC(=O)[C@@H](NC(=O)OC)C(C)(C)C(F)(F)F)C(C)(C)C(F)(F)F [Example 152, Methyl ((5S,8S,9S,14S)-11-(4-(1-(difluoromethyl)-1H-pyrazol-3-yl)-2,6-difluorobenzyl)-16,16,16-trifluoro-9-hydroxy-15,15-dimethyl-8-(4-((2-methyl-6-(8-(oxetan-3-yl)-3,8-diazabicyclo[3.2.1]octan-3-yl)pyridin-3-yl)ethynyl)benzyl)-3,6,13-trioxo-5-(1,1,1-trifluoro-2-methylpropan-2-yl)-2-oxa-4,7,11,12-tetraazahexadecan-14-yl)carbamate] was run?
A: The EC50 was 6.16 nM.

Q: Which EC50 does the source give for COC(=O)N[C@H](C(=O)N[C@@H](Cc1ccc(C#Cc2ccc(N3CC4CCC(C3)N4C3COC3)nc2C)cc1)[C@@H](O)CN(Cc1c(F)cc(-c2cnn(C(F)F)c2)cc1F)NC(=O)[C@@H](NC(=O)OC)C(C)(C)C(F)(F)F)C(C)(C)C(F)(F)F [Example 155, Methyl ((5S,8S,9S,14S)-11-(4-(1-(difluoromethyl)-1H-pyrazol-4-yl)-2,6-difluorobenzyl)-16,16,16-trifluoro-9-hydroxy-15,15-dimethyl-8-(4-((2-methyl-6-(8-(oxetan-3-yl)-3,8-diazabicyclo[3.2.1]octan-3-yl)pyridin-3-yl)ethynyl)benzyl)-3,6,13-trioxo-5-(1,1,1-trifluoro-2-methylpropan-2-yl)-2-oxa-4,7,11,12-tetraazahexadecan-14-yl)carbamate] here?
A: Its EC50 is 8.95 nM.

Q: With CC(C)([C@H](NC(=O)OC1CC1)C(=O)N[C@@H](Cc1ccc(C#Cc2ccc(N3CC4CCC(C3)N4C3COC3)nc2)cc1)[C@@H](O)CN(Cc1c(F)cc(-c2ccn(C(F)F)n2)cc1F)NC(=O)[C@@H](NC(=O)OC1CC1)C(C)(C)C(F)(F)F)C(F)(F)F [Example 156, Cyclopropyl ((2S)-1-(2-((2S,3S)-3-((S)-2-((cyclopropoxycarbonyl)amino)-4,4,4-trifluoro-3,3-dimethylbutanamido)-2-hydroxy-4-(4-((6-(8-(oxetan-3-yl)-3,8-diazabicyclo[3.2.1]octan-3-yl)pyridin-3-yl)ethynyl)phenyl)butyl)-2-(4-(1-(difluoromethyl)-1H-pyrazol-3-yl)-2,6-difluorobenzyl)hydrazinyl)-4,4,4-trifluoro-3,3-dimethyl-1-oxobutan-2-yl)carbamate] as the molecule, how does the EC50 read?
A: Its EC50 is 17 nM.

Q: With COC(=O)N[C@H](C(=O)N[C@@H](Cc1ccc(C#Cc2ccc(N3CC4CCC(C3)N4C3COC3)nc2)cc1)[C@@H](O)CN(Cc1ccc(-c2cnn(C(F)F)c2)cc1F)NC(=O)[C@@H](NC(=O)OC)C(C)(C)C(F)(F)F)C(C)(C)C(F)(F)F [Example 157, Methyl ((5S,8S,9S,14S)-11-(4-(1-(difluoromethyl)-1H-pyrazol-4-yl)-2-fluorobenzyl)-16,16,16-trifluoro-9-hydroxy-15,15-dimethyl-8-(4-((6-(8-(oxetan-3-yl)-3,8-diazabicyclo[3.2.1]octan-3-yl)pyridin-3-yl)ethynyl)benzyl)-3,6,13-trioxo-5-(1,1,1-trifluoro-2-methylpropan-2-yl)-2-oxa-4,7,11,12-tetraazahexadecan-14-yl)carbamate] as the molecule, how does the EC50 read?
A: Its EC50 is 4.53 nM.

Q: With COC(=O)N[C@H](C(=O)N[C@@H](Cc1ccc(C#Cc2cnc(N3CC4CCC(C3)N4C3COC3)nc2)cc1)[C@@H](O)CN(Cc1c(F)cc(-c2ccn(C(F)F)n2)cc1F)NC(=O)[C@@H](NC(=O)OC)C12CC(C(F)(F)F)(C1)C2)C12CC(C(F)(F)F)(C1)C2 [Example 160, Methyl ((5S,8S,9S,14S)-11-(4-(1-(difluoromethyl)-1H-pyrazol-3-yl)-2,6-difluorobenzyl)-9-hydroxy-8-(4-((2-(8-(oxetan-3-yl)-3,8-diazabicyclo[3.2.1]octan-3-yl)pyrimidin-5-yl)ethynyl)benzyl)-3,6,13-trioxo-5,14-bis(3-(trifluoromethyl)bicyclo[1.1.1]pentan-1-yl)-2-oxa-4,7,11,12-tetraazatetradecan-14-yl)carbamate] as the molecule, how does the EC50 read?
A: The EC50 was 5700 nM.
